Laboratory results: patent US20230107277A1, “SUBSTITUTED PYRIDAZINE COMPOUND” (Astellas Pharma Inc., priority 2020, published 2023)
pIC50: −log10 of the molar value.

What was measured:
[1] = tested on: IL-1β Production of THP-1; test: Test on IL-1β production of THP-1 (LPS and ATP stimulation, ELISA); format: cell-based; conditions: Homo sapiens; PMA-differentiated THP-1 cells, LPS 50 ng/mL and ATP 5 mM, 2 hours
Description: 50 ng/mL of PMA (phorbol myristate acetate, SIGMA, P1585) was added to THP-1 cells, and the cells were cultured at 37° C. for 2 days. […] LPS (Lipopolysaccharide, SIMGA, L2880) and ATP (Adenosine triphosphate, SIGMA, A2383) were added to final concentrations of 50 ng/mL and 5 mM, respectively, and the cells were cultured at 37° C. for 2 hours. The supernatant was collected, and the concentration of IL-1β was measured by an ELISA method (DuoSet ELISA human IL-1β, R&D Systems, DY201). […] The IC50 value was calculated by sigmoid […] model non-linear regression analysis.

[2] = tested on: IL-1β p17 in the cerebral spinal fluid; test: Test on IL-1β production in rat central nerve (LPS/BzATP intracisternal, CSF Western blot); conditions: oral
Description: After 2 hours, the test compound was orally administered. After 1 hour, 50 μg/5 μL of BzATP (2′(3′)-O-(4-Benzoylbenzoyl)adenosine 5′-triphosphate triethylammonium salt, SIGMA, B6396) was intracisternally administered, and after 30 minutes, a cerebral spinal fluid was collected. The amount of IL-1β p17 in the cerebral spinal fluid was determined by a Western blotting method using an anti-IL-1β antibody (Millipore, AB1832P), and the inhibition ratio to the solvent administration group was calculated.

Row | Structure (SMILES) | pIC50 [1] | further results
1 | Cc1c(NC[C@@H](C)O)nnc(-c2ccc(C(F)(F)F)cc2C(F)(F)F)c1C [Example 4, (2R)-1-({6-[2,4-bis(trifluoromethyl)phenyl]-4,5-dimethylpyridazin-3-yl}amino)propan-2-ol] | 6.68 | IL-1β p17 inhibition ratio to the solvent administration group ([2]; Dose 3 mg/kg): 68%; IL-1β p17 inhibition ratio to the solvent administration group ([2]; Dose 10 mg/kg): 93%; IL-1β p17 inhibition ratio to the solvent administration group ([2]; Dose 30 mg/kg): 100%
2 | Cc1c(NC[C@@H](C)O)nnc(-c2ccc(C(F)(F)F)cc2O)c1C [Example 9, 2-(6-{[(R2R)-2-hydroxypropyl]amino}-4,5-dimethylpyridazin-3-yl)-5-(trifluoromethyl)phenol] | 7.85 | IL-1β p17 inhibition ratio to the solvent administration group ([2]; Dose 0.3 mg/kg): 37%; IL-1β p17 inhibition ratio to the solvent administration group ([2]; Dose 1 mg/kg): 70%; IL-1β p17 inhibition ratio to the solvent administration group ([2]; Dose 3 mg/kg): 89%
3 | OCCCNc1nnc(-c2ccc(C(F)(F)F)cc2)cc1-c1ccco1 [Example 50] | 5.96 | –
4 | OCCCNc1cc(-c2ccco2)c(-c2ccc(C(F)(F)F)cc2)nn1 [Example 51] | 6.00 | –
5 | Cc1cc(NCCCO)nnc1-c1ccc(C(F)(F)F)cc1 [Example 52] | 6.33 | –
6 | Cc1cc(-c2ccc(C(F)(F)F)cc2)nnc1NCCCO [Example 53] | 5.57 | –
7 | OCCCNc1cc(-c2ccccc2)c(-c2ccc(C(F)(F)F)cc2C(F)(F)F)nn1 [Example 54] | 5.46 | –
8 | C[C@@H](O)CNc1cc(-n2ccnc2)c(-c2ccc(C(F)(F)F)cc2C(F)(F)F)nn1 [Example 55] | 5.29 | –
9 | C[C@@H]1COCCN1C(=O)c1cc(-c2ccc(C(F)(F)F)cc2C(F)(F)F)nnc1NC[C@@H](C)O [Example 56] | 5.60 | –
10 | C[C@@H](O)CNc1nnc(-c2ccc(C(F)(F)F)cc2C(F)(F)F)cc1C(=O)N1CCOC[C@@H]1C [Example 57] | 5.80 | –
11 | C[C@@H]1CN(C(=O)c2cc(-c3ccc(C(F)(F)F)cc3C(F)(F)F)nnc2NC[C@@H](C)O)CCO1 [Example 58] | 6.02 | –
12 | COc1ccc(-c2nnc(NC[C@@H](C)O)cc2C)c(C(F)(F)F)c1 [Example 59] | 6.12 | –
13 | COc1ccc(-c2nnc(NC[C@@H](C)O)cc2C)c(C2CC2)c1 [Example 60] | 5.77 | –
14 | CC(C)c1cc(NC[C@@H](C)O)nnc1-c1ccc(C(F)(F)F)cc1C(F)(F)F [Example 61] | 5.82 | –
15 | Cc1cc(NC[C@@H](C)O)nnc1-c1cc(F)ccc1O [Example 62] | 5.68 | –
16 | CCc1cc(NC[C@@H](C)O)nnc1-c1ccc(C(F)(F)F)cc1O [Example 64] | 7.48 | –
17 | Cc1c(NC[C@@H](C)O)nnc(-c2ccc(Cl)cc2O)c1C [Example 65] | 7.31 | –
18 | Cc1cc(NC[C@@H](C)O)nnc1-c1ccc(Cl)cc1O [Example 66] | 7.33 | –
19 | CCc1c(NC[C@@H](C)O)nnc(-c2ccc(C(F)(F)F)cc2O)c1CC [Example 67] | 6.77 | –
20 | Cc1c(NCC(C)(C)O)nnc(-c2ccc(C(F)(F)F)cc2O)c1C [Example 68, 2-{6-[(2-hydroxy-2-methylpropyl)amino]-4,5-dimethylpyridazine-3-yl}-5-(trifluoromethyl)phenol] | 6.51 | –
21 | COc1ccc(-c2nnc(NC[C@@H](C)O)cc2C)c(O)c1 [Example 69] | 6.60 | –
22 | Cc1c(NCCCO)nnc(-c2ccc(C(F)(F)F)cc2O)c1C [Example 70, 2-{6-[(3-hydroxypropyl)amino]-4,5-dimethylpyridazine-3-yl}-5-(trifluoromethyl)phenol] | 7.44 | –
23 | Cc1c(NCC(C)CO)nnc(-c2ccc(C(F)(F)F)cc2O)c1C (stereo not shown) [Example 71] | 7.42 | –
24 | Cc1c(NC[C@H](C)O)nnc(-c2ccc(C(F)(F)F)cc2O)c1C [Example 73] | 7.37 | –
25 | CC(=O)NCCCCNc1nnc(-c2ccc(C(F)(F)F)cc2O)c(C)c1C [Example 74] | 7.46 | –
26 | Cc1c(NC[C@H](C)CO)nnc(-c2ccc(C(F)(F)F)cc2O)c1C [Example 75] | 7.74 | –
27 | Cc1c(NCC(C)CO)nnc(-c2ccc(Cl)cc2O)c1C (stereo not shown) [Example 77] | 7.05 | –
28 | C[C@@H](O)CNc1cc(C2CC2)c(-c2ccc(Cl)cc2O)nn1 [Example 78] | 7.37 | –
